Measurements as given in ChEMBL document CHEMBL1201862, “PubChem BioAssay data set” (2004).
Values joined by “and” are separate entries in the source; they are usually repeats but may differ in a detail not shown here. Identical values can stand only once. Active and inactive are the calls of the source.

Legend:
Bcl-2-like protein 10 = Bcl-2-like protein 10 (Homo sapiens, UniProt Q9HD36); experiment: Biochemical TR3 FP assay of Bcl-B inhibitor potency, EC50 (AID 1243); type: functional
[1] = molecular target: E3 ubiquitin-protein ligase Mdm2 (Homo sapiens, UniProt Q00987); experiment: enhancers of MDM2-luciferase reporter signal, concentration-effect titration, project on inhibitors of MDM2 ubiquitin ligase, cellular assay, luminescent readout, 384-well plate format (AID 1394); type: functional;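 further: MDM2 E3 inhibitors raise luminescence so EC50 is for signal enhancement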
Sequence of E3 ubiquitin-protein ligase Mdm2 (Q00987 whole entry): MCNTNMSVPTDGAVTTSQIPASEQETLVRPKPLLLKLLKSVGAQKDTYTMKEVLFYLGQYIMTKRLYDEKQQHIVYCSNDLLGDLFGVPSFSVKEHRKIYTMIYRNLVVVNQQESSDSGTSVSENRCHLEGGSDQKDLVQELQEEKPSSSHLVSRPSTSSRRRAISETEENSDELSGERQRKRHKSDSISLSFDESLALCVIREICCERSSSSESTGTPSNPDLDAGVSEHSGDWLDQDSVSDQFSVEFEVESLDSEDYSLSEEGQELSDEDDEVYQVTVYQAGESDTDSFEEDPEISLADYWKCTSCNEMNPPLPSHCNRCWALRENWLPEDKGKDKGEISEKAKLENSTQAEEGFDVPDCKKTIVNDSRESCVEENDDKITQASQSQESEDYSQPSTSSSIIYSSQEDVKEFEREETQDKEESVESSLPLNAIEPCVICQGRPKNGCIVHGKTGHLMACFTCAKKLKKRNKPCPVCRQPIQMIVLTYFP

HEK293 [2] = experiment: Fluorescence-based counterscreen for potentiators or agonists of NPY-Y2: cell-based high-throughput dose response assay to identify inhibitors of cyclic nucleotide gated ion channel (CNGC) activity. In this assay, the parental HEK293 cell line transfected with a cyclic-nucleotide gated ion channel (CNGC)-based cAMP sensor is used to measure inhibition of isoproterenol-induced CNGC activity by test compound.; type: functional; conditions: Homo sapiens
[3] = molecular target: T1, Neuropeptide Y receptor type 2 (Homo sapiens, UniProt P49146); experiment: NPY-Y2 antagonist potency, selectivity check, dose response, counter-screen for NPY-Y1 antagonist project, cell-based (AID 1278); type: functional
T1 sequence (P49146 whole entry): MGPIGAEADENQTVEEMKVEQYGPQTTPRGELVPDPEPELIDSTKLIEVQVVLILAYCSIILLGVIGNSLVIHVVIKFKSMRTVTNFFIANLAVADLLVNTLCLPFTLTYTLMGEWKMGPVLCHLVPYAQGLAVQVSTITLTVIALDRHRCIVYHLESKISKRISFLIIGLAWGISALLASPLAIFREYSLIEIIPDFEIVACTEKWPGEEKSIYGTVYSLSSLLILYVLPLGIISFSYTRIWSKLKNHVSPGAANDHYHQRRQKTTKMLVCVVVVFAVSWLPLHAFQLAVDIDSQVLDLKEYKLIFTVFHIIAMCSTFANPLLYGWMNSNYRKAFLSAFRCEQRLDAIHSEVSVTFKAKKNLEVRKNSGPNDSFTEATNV

BJ [4] = experiment: cytotoxicity toward BJ-TERT fibroblasts, dose response, cell-based, RAS-independent, luminescence (AID 1933); type: functional; conditions: Homo sapiens
[5] = molecular target: T1, Neuropeptide Y receptor type 2; experiment: Fluorescence-based cell-based high-throughput dose response assay for agonists of NPY-Y2. [Related pubchem assays: 1703 (Screening assay (CNGC inhibitors).), 1359 (Screening assay (NPY-Y2 potentiators or agonists).), 1304 (Screening assay (NPY-Y1 potentiators or agonists).), 1710 (Screening assay (NPY-Y2 agonists).), 1791 (Summary AID.)]; type: functional
BJ [6] = experiment: cells; type: functional, cell-based; conditions: Homo sapiens
[7] = molecular target: T2, Neuropeptide Y receptor type 1 (Homo sapiens, UniProt P25929); experiment: NPY-Y1 receptor antagonist potency, dose response, cell-based (AID 1277); type: functional
T2 sequence (P25929 whole entry): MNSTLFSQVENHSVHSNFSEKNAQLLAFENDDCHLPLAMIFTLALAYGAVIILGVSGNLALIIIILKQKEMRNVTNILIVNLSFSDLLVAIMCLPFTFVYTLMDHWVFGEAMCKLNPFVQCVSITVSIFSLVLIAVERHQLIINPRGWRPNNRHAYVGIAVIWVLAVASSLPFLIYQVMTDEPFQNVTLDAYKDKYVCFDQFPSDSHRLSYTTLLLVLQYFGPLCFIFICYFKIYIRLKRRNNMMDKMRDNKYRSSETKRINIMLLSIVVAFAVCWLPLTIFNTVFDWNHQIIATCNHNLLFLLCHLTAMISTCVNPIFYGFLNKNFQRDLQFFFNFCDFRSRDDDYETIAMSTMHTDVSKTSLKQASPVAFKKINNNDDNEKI

[8] = molecular target: T2, Neuropeptide Y receptor type 1; experiment: Fluorescence-based counterscreen for agonists of NPY-Y2: cell-based high-throughput dose response assay for agonists of NPY-Y1.; type: functional
BJ [9] = experiment: cytotoxicity toward BJ-TERT-LT-ST fibroblasts, dose response, cell-based, RAS-independent, luminescence (AID 1935); type: functional; conditions: Homo sapiens;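 further: BJ fibroblasts immortalized with TERT plus LT and ST oncogenes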
[10] = cytotoxicity toward DRD oncogenic fibroblasts, dose response, cell-based, non-viral oncogenic, luminescence (AID 1934); type: functional; conditions: Homo sapiens
[11] = molecular target: T3, Heat shock factor protein 1 (Mus musculus, UniProt P38532); experiment: HSF1 potentiators in luciferase reporter cells, confirmation, cell-based, NIH3T3, luminescence, dose retest (AID 435004); type: functional;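 further: stress induced by proteasome inhibitor MG132 added 30 min after compound; luciferase reporter driven by HSF1 response element in NIH3T3 cells; actives raise luminescence as potentiators of the MG132 stress response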
T3 sequence (P38532 whole entry): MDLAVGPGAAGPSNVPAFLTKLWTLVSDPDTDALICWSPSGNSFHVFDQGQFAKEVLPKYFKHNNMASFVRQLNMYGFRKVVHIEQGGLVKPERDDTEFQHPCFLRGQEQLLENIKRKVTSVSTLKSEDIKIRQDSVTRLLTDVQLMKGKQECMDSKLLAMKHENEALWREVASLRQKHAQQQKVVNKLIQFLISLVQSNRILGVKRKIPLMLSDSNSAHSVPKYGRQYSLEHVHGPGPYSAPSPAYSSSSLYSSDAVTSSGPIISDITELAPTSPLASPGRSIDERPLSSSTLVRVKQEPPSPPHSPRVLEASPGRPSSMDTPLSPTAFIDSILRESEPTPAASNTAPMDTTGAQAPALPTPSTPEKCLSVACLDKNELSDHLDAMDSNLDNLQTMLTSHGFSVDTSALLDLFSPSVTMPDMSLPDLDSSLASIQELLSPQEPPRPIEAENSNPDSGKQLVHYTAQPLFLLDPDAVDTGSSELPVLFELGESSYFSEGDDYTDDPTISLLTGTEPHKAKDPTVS

[12] = Shn3 3'UTR reporter inhibitors, dose response, cell-based, Clone20 osteoblasts, firefly luciferase, cherry-picked (AID 624132); type: functional;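 further: firefly luciferase luminescence from reporter carrying the Shn3 3'UTR in osteoblasts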
[13] = HepG2 cell cytotoxicity, dose response, cytotoxicity control for Shn3 inhibitor project, CellTiter-Glo, cherry-picked (AID 624134); type: functional, cell-based
[14] = control 3'UTR Renilla luciferase suppression, dose response, counter-screen for Shn3 inhibitor project, cell-based, Clone20-Shn3RL, cherry-picked (AID 624133); type: functional
HEK293 [15] = experiment: cells; conditions: Homo sapiens
HEK293 [16] = experiment: cells; conditions: Homo sapiens; remark: listed apart in the source
[17] = molecular target: Luciferin 4-monooxygenase (Photinus pyralis, UniProt P08659); experiment: Counter Screen for Luciferase-based Assay Positives. [Related pubchem assays: 620, 618, 411 ]
Sequence of Luciferin 4-monooxygenase (P08659 whole entry): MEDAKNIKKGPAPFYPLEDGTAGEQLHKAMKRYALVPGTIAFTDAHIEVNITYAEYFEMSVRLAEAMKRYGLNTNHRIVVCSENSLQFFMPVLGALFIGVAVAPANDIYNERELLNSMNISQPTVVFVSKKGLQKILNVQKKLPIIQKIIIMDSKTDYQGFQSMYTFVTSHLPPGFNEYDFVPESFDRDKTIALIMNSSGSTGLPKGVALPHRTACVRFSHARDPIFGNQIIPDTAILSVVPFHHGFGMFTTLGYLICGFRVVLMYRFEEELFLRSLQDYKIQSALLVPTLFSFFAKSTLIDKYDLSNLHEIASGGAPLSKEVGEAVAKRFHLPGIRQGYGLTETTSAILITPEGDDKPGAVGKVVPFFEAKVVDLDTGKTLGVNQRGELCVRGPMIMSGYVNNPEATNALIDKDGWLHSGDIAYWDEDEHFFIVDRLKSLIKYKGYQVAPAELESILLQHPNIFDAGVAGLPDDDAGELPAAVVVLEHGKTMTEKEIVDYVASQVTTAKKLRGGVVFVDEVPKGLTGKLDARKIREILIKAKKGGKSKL

HT-1080 = experiment: cytotoxicity in HT1080 fibrosarcoma cells, cell-based, fluorescence readout (AID 620); type: functional; conditions: Homo sapiens
[18] = HEp-2 cell cytotoxicity, dose response, cytotoxicity control for RSV inhibitor project, HTS (AID 2410); type: functional; conditions: human respiratory syncytial virus
[19] = inhibitors of firefly luciferase expression or activity, dose response, H4 neuroglioma cells, luminescence (AID 1990); type: functional, cell-based
[20] = luciferase reporter signal reduction – luminescence, H4-C neuroglioblastoma cells, dose response (AID 2458); type: functional, cell-based;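 further: H4 neuroglioblastoma cells stably carrying a luciferase reporter gene fusion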
cells = type: functional, cell-based
[21] = Luminescence Cell-Based Dose Response HTS to Identify Inhibitors of 5'UTR Stem-Loop Driven Prion Protein mRNA Translation in H4 Neuroglioblastoma Cells. [Related pubchem assays: 1827 (Project Summary), 1813 (Primary HTS)]; type: functional
[22] = inhibitors of SNCA 5'UTR-driven reporter translation, confirmation, H4 neuroglioma cells, luminescence (AID 1988); type: functional, cell-based
[23] = inhibitors of SNCA 5'UTR-driven translation, confirmation, luminescence, H4 neuroglioblastoma cells, dose confirmation (AID 2454); type: functional, cell-based;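 further: H4 neuroglioblastoma cells carrying an alpha-synuclein 5'UTR luciferase reporter; potency for inhibition of the luciferase signal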
[24] = cytotoxicity in HEK-293T cells, dose response, cytotoxicity control for TCR NF-kB inhibitor project, luminescence, T-cell screen hits (AID 489026); type: functional, cell-based;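 further: cells exposed to compound about 14 hours before the viability readout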
Cytochrome P450 2D6 = Cytochrome P450 2D6 (Homo sapiens, UniProt P10635); experiment: qHTS Assay for Inhibitors and Substrates of Cytochrome P450 2D6. [Related pubchem assays: 410 ]; type: ADME; conditions: read-out: Potency
Sequence of Cytochrome P450 2D6 (P10635 whole entry): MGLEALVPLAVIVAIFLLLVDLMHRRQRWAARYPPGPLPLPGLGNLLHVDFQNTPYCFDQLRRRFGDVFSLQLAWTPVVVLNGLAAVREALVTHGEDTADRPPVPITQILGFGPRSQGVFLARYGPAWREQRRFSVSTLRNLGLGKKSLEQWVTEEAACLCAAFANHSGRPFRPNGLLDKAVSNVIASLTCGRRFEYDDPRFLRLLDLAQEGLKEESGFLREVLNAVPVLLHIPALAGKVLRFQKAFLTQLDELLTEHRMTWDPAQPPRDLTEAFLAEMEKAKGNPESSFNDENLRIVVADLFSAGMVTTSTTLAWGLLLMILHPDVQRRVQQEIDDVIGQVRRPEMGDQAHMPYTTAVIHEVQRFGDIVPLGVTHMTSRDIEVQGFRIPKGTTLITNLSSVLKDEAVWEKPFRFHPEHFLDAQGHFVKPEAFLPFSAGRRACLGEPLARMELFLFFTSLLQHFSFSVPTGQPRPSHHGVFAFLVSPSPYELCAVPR

Cytochrome P450 3A4 = Cytochrome P450 3A4 (Homo sapiens, UniProt P08684); conditions: Potency;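 further: confirmatory qHTS run detecting inhibitors and substrates of CYP3A4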
Sequence of Cytochrome P450 3A4 (P08684 whole entry): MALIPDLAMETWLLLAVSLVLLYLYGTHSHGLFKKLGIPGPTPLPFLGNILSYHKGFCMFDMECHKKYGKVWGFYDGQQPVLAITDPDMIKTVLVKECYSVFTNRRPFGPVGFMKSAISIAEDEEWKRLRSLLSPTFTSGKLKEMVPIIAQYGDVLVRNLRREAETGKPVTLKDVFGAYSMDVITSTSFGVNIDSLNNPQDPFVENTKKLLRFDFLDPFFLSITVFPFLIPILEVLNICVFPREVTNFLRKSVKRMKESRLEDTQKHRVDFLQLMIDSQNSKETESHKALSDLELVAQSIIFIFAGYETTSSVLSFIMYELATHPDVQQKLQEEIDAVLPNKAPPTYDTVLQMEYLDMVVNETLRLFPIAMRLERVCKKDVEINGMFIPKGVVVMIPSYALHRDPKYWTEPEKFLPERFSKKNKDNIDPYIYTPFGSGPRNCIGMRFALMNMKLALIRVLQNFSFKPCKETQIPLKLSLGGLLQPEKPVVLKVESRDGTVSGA

Sequence of Bcl-2-like protein 10 (Q9HD36 whole entry): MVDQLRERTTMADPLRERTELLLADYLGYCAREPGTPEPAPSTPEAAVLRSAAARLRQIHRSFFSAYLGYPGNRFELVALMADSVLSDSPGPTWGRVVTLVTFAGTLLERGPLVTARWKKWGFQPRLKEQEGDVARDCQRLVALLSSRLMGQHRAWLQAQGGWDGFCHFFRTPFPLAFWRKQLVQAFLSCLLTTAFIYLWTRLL

C=CCN1C(=O)/C(=C\c2cccn2-c2cccc([N+](=O)[O-])c2)C(=O)NC1=S
EC50 (Bcl-2-like protein 10): 5.36 µM (active)

C/C1=C\[C@@H](C)C/C=C/[C@H]2[C@@H]3O[C@]3(C)[C@@H](C)[C@H]3[C@H](Cc4c[nH]c5ccccc45)NC(=O)[C@]32C(=O)/C=C/C(=O)[C@@H]1O
EC50 [1]: 12 µM (not active) | EC50 (HEK293 [2]): > 35.4 µM (not active) | IC50 [3]: 4.76 µM (active) | EC50 (BJ [4]): 3.85 µM (inconclusive) | EC50 [5]: > 35.4 µM (not active) | EC50 (BJ [6]): 6.74 µM (inconclusive) | IC50 [7]: 10.6 µM (not active) | EC50 [8]: > 35.4 µM (not active) | EC50 (BJ [9]): 10.7 µM (inconclusive) | EC50 [10]: 5.67 µM (active) | EC50 [11]: 6.24 µM (inconclusive) | AC50 [12]: 6.44 µM (active) | AC50 [13]: 24.2 µM (active) | AC50 [14]: 5.25 µM (active) | EC50 (HEK293 [15]): > 59.6 µM (inactive) | EC50 (HEK293 [16]): > 59.6 µM (inactive)

O=c1/c(=C/c2ccccn2)sc2nc3ccccc3n12
EC50 [17]: < 0.2 µM (active) | EC50 (HT-1080): > 50 µM (not active)

CC(=O)c1sc2c(c1OC(=O)c1ccc(Cl)cc1Cl)c(=O)n(-c1ccccc1)c(=S)n2-c1ccccc1
CC50 [18]: 1.59 µM (active) | EC50 [19]: 0.134 µM (active) | EC50 [20]: 0.578 µM (active) | EC50 (BJ [4]): 0.201 µM (active) | EC50 (cells): 0.444 µM (active) | EC50 [21]: < 0.1 µM (active) | EC50 [22]: < 0.1 µM (active) | EC50 (BJ [6]): 104 µM (active) | EC50 (BJ [9]): 6.47 µM (inconclusive) | EC50 [10]: 0.36 µM (inconclusive) | EC50 [23]: 0.716 µM (active) | IC50 [24]: > 80 µM (inactive)

Cc1cccc(C#Cc2ccccc2)n1
AC50 (Cytochrome P450 2D6): 39.8 µM (inconclusive) | AC50 (Cytochrome P450 3A4): 20 µM (inconclusive) and 1.26 µM (inconclusive)
